Consider five molecules from US7589185B2, “Nucleotide sequences and protein(s) encoded by such nucleotides for modulation of apoptosis” (Universita' degli Studi di Catanzaro “Magna Graecia”, priority 2001, dated 2009).

The subject of one data set is Air protein. In words: Intracellular expression of Air protein in primary B-CLL cells, immunofluorescence flow cytometry. It is filed as cell-based, human. From the text: Presence of the Protein in primary ex vivo cells—We investigated whether our protein was present in primary ex vivo cells. (Procedures and conditions for isolation and culturing of primary cells are described in ref. 8-10). To this purpose, we first analysed three samples of B chronic lymphocytic leukemia (B-CLL) cells, since these cells can be considered a primary counterpart of the cell line that we initially studied. To detect the protein, we perform intracellular immuno-fluorescence experiments. 1−2×10^6 cells were fixed and permeabilised with 250 microl of Cytofix/Cytoperm (Pharmingen) solution, then incubated with the specific anti-Air rabbit polyclonal or a control rabbit antibody, followed by washing with Perm/Wash (Pharmingen) and a second incubation with fluorescein isothiocyanate (FITC)-conjugated goat anti-rabbit antibody. Then the cells were analysed with a FACScan (Becton Dickinson) flow cytometer. These experiments allowed to detect the presence of the protein in the three analysed B-CLL samples (FIGS. 7, 8 and 9).
FIG. 7—Intracellular expression of Air protein in cells from a patient affected by B-CLL. 2×10^6/ml cells obtained from patient's peripheral blood by centrifugation through Ficoll-Hypaque were incubated 24 h at 37° C. in a 5% CO2 atmosphere in the absence or presence of 2 mM DEM, fixed and permeabilised with 250 microl of Cytofix/Cytoperm (Pharmingen) solution. The cells were then incubated with the specific anti-Air rabbit polyclonal or a control rabbit antibody, followed by washing with Perm/Wash (Pharmingen) and a second incubation with fluorescein isothiocyanate (FITC)-conjugated goat anti-rabbit antibody. Then the cells were analysed with a FACScan (Becton Dickinson) flow cytometer. A panel: unstimulated cells. B panel: DEM-stimulated cells. Protein expression is detected in the 33.8% of the cells in basal conditions and in the 47.6% of the cells incubated with DEM.
FIG. 8—Intracellular expression of Air protein in cells from a patient affected by B-CLL. 2×10^6/ml cells obtained from patient's peripheral blood by centrifugation through Ficoll-Hypaque were incubated 24 h at 37° C. in a 5% CO2 atmosphere in the absence or presence of 2 mM DEM or 20 microM 2-Methoxymethylestradiol (2-ME), fixed and permeabilised with 250 microl of Cytofix/Cytoperm (Pharmingen) solution. The cells were then incubated with the specific anti-Air rabbit polyclonal or a control rabbit antibody, followed by washing with Perm/Wash (Pharmingen) and a second incubation with fluoresceinisothiocyanate (FITC)-conjugated goat anti-rabbit antibody. Then the cells were analysed with a FACScan (Becton Dickinson) flow cytometer. A panel: unstimulated cells. B panel: DEM-stimulated cells. C panel: cells stimulated with the drug 2-Methoxymethylestradiol (2-ME). Protein expression is detected in the 17.3% of the cells in basal conditions, in the 55.5% of DEM-stimulated cells and in the 53.1% of 2-ME-stimulated cells.
FIG. 9—Intracellular expression of Air protein in a patient affected by B-CLL. […] Then the cells were analysed with a FACScan (Becton Dickinson) flow cytometer. […] Protein expression is detected in the 27.2% of the cells in basal conditions, in the 28.3% of DEM-stimulated cells and in the 23.1% of 2-ME-stimulated cells.

For data set [1], the system named is SH-SY5Y neuroblastoma cells. In words: Apoptosis of SH-SY5Y neuroblastoma cells induced by DEM, propidium iodide flow cytometry. It is filed as cell-based, human. To be noted: 2 or 6 mM DEM, oligonucleotides 7 microM, 12 or 16 h (FIGS. 3-6).

As for `COCc1cc2c(cc1O)CC[C@@H]1[C@@H]2CC[C@]2(C)[C@@H](O)CC[C@@H]12` [2-ME, 2-Methoxymethylestradiol], the “cells in which Air protein expression is detected” value in the data set with Air protein (B-CLL patient of FIG. 8, 20 microM 2-ME, 24 h (basal 17.3%)) is on record as 53.1%; in the data set with Air protein (B-CLL patient of FIG. 9, 20 microM 2-ME, 24 h (basal 27.2%)) it was 23.1%.
In the case of `CCOC(=O)/C=C\C(=O)OCC` [DEM, diethylmaleate], the “cells in which Air protein expression is detected” value with Air protein (B-CLL patient of FIG. 7, 2 mM DEM, 24 h (basal 33.8%)) is 47.6%; in the data set with Air protein (B-CLL patient of FIG. 8, 2 mM DEM, 24 h (basal 17.3%)) it was 55.5%; in the data set on Air protein (B-CLL patient of FIG. 9, 2 mM DEM, 24 h (basal 27.2%)), 28.3%.
Turning to “SEQ ID NO 6: antisense phosphorothioate oligonucleotide directed at blocking Air synthesis (CTTAGTCTTATACATTTTTTTAAAATC; all phosphorothioate, sugars by position and methylation of C not given here)”, the modulation of apoptosis result in data set [1] is given as “blocking it”.
Regarding “SEQ ID NO 7: antisense phosphorothioate oligonucleotide directed at blocking Air synthesis (ATCTTAGTCTTATACATTTTTTTAAA; all phosphorothioate, sugars by position and methylation of C not given here)”, the modulation of apoptosis entry in data set [1] is listed as “blocking it”.
“SEQ ID NO 8: antisense phosphorothioate oligonucleotide directed at blocking Air synthesis (CTTTCTATCTTCATTTTATTTTTCC; all phosphorothioate, sugars by position and methylation of C not given here)”: the modulation of apoptosis entry in data set [1] is reported as “blocking it”.
